The text below walks through data of ChEMBL document CHEMBL1201862, “PubChem BioAssay data set” (2004).

Each structure is given as a SMILES string.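 Where inhibition never reached the appropriate level, the endpoint shown equals the highest concentration tested. Otherwise, values were interpolated linearly from a five-concentration, 48-hour dose response in 96-well plates. GI50 marks 50% less growth.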 The source made the active and inactive calls. No stated cut-off is given here; in the data, active = GI50 up to about 1.1 µM and inactive = higher.

Common to all, as to experiment: NCI tumour cell line growth inhibition, 48 h
Assay [1] concerns KM12.
Assay [2] has as its system HCT-15.
The subject of assay [3] is SF-268.
Assay [4] concerns CAKI-1.
Assay [5] deals with RPMI-8226.
The subject of assay [6] is HOP-62.
In assay [7] the test system is HCC 2998.
In assay [8] the test system is OVCAR-3.
The test system of assay [9] is HL-60.
Assay [10] relates to NCI/ADR-RES.
The test system of assay [11] is MOLT-4.
For assay [12], the system named is CCRF-CEM.
Assay [13] deals with DLD-1.
The subject of assay [14] is SN12C.
For assay [15], the system named is SK-MEL-2.
In assay [16] the test system is HOP-92.
The test system of assay [17] is SF-295.
In assay [18] the test system is NCI-H23.
Assay [19] deals with M14.
The test system of assay [20] is ACHN.

Regarding `CCOC(=O)/C(O)=C1\C(=O)N(C)C(=O)C1c1ccc(OC)c(OC)c1` (stereo unspecified), the GI50 was > 100 µM (inactive) in [1]; > 100 µM in assay [2]; > 100 µM (inactive) in assay [3]; > 100 µM (inactive) in assay [4]; > 100 µM (inactive) in [5]; > 100 µM (inactive) in [6]. Also, the GI50 in assay [7], in assay [8], in assay [9], in assay [10], in assay [11] and in [12] was > 100 µM (inactive) in each case. Further, the GI50 in [13], in assay [14], in [15], in [16], in assay [17] and in [18] was > 100 µM (inactive) in each case.
With `Brc1ccccc1/C=C\C1(c2ccccc2)OCCO1`, the GI50 in [1] was 2.34 µM (inactive); in assay [19] it was 11.4 µM (inactive); in assay [2], 6.38 µM; in assay [3] it was 4.98 µM (inactive); in assay [4], 6.59 µM (inactive); in assay [5] it was 1.01 µM (active). Also, the GI50 was 8.51 µM (inactive) in assay [20]; 14.5 µM (inactive) in assay [6]; 15.7 µM (inactive) in [7]; 12.7 µM (inactive) in [8]; 24.7 µM (inactive) in [9]; 10.9 µM (inactive) in assay [10]. Also, the GI50 in [11] is 0.238 µM (active); in assay [12], 3.03 µM (inactive); in [14] it was 14.1 µM (inactive); in assay [15], 23 µM (inactive); in assay [16], 23.3 µM (inactive); in [17], 13.4 µM (inactive). For the same compound, in [18], the GI50 was 7.29 µM (inactive).
For the compound `CN(C)C(CN)CC1=C(CC(CN)N(C)C)CCC1` (stereo unspecified), the GI50 is > 100 µM (inactive) in assay [1]; > 100 µM in assay [2]; > 100 µM (inactive) in [3]; > 100 µM (inactive) in assay [4]; > 100 µM (inactive) in assay [5]; > 100 µM (inactive) in assay [6]. Besides, the GI50 in assay [7], in assay [8], in assay [9], in [10], in assay [11] and in assay [12] was > 100 µM (inactive) throughout. For the same compound, the GI50 in assay [13], in [14], in assay [15], in assay [16], in [17] and in [18] was > 100 µM (inactive) each time.
In the case of `CCOc1cc(C(=O)O)c2c(ccc3ccc(OC)c(OC)c32)c1OC`, the GI50 in [1] was > 100 µM (inactive); in assay [19] it was > 100 µM (inactive); in assay [2] it was > 100 µM; in [3], > 100 µM (inactive); in assay [4] it was > 100 µM (inactive); in [5], > 100 µM (inactive). For the same compound, the GI50 in [20], in [6], in assay [7], in assay [8], in assay [9] and in [10] was > 100 µM (inactive) throughout. The GI50 in assay [11], in [12], in [14], in assay [15], in assay [16] and in assay [17] was > 100 µM (inactive) in each case. Further, the GI50 in assay [18] was > 100 µM (inactive).
For the compound `COc1ccc(-c2c(C#N)c(NC(=S)NC(=O)c3ccccc3)nc3c2CCCC3)cc1OC`, the GI50 in [1] was > 100 µM (inactive); in assay [19] it was 75.7 µM (inactive); in [2] it was > 100 µM; in assay [3], 41.8 µM (inactive); in assay [4] it was 49.5 µM (inactive); in [5], 42 µM (inactive). Besides, the GI50 was 72.3 µM (inactive) in assay [20]; 44.9 µM (inactive) in assay [6]; 99.5 µM (inactive) in assay [8]; 34.1 µM (inactive) in [9]; 56.4 µM (inactive) in assay [10]; 27 µM (inactive) in assay [11]. The GI50 in assay [12] was 50.7 µM (inactive); in assay [14], 49 µM (inactive); in [17] it was 56.6 µM (inactive); in [18] it was 67.9 µM (inactive).
As to `COc1cc2c(cc1OC)C(Cc1c3ccccc3cc3ccccc13)N(C)CC2` (stereo unspecified), the GI50 was 16.3 µM (inactive) in assay [1]; 30.2 µM in assay [2]; 29 µM (inactive) in assay [3]; 25.1 µM (inactive) in assay [4]; 13.9 µM (inactive) in assay [5]; 21.4 µM (inactive) in assay [6]. The GI50 in assay [8] was 27.7 µM (inactive); in assay [9] it was 10.4 µM (inactive); in assay [10] it was 24.7 µM (inactive); in assay [11] it was 16 µM (inactive); in [12], 18.8 µM (inactive); in [13], 32.1 µM (inactive). Moreover, the GI50 in assay [14] was 42 µM (inactive); in [15], 17.6 µM (inactive); in assay [16], 11.4 µM (inactive); in assay [17], 17.4 µM (inactive); in assay [18] it was 29 µM (inactive).
Consider `COCCOCOC(C)(C)[C@H](CCO)O[Si](c1ccccc1)(c1ccccc1)C(C)(C)C`, for which the GI50 in [1] is 11.5 µM (inactive); in assay [19], 9.89 µM (inactive); in assay [2], 4.68 µM; in [3], 7.13 µM (inactive); in assay [5], 6.17 µM (inactive); in assay [20], 5.68 µM (inactive). The GI50 in assay [7] is 4.68 µM (inactive); in [8] it was 10.2 µM (inactive); in assay [9] it was 2.39 µM (inactive); in assay [11], 3.54 µM (inactive); in assay [13] it was 9.64 µM (inactive); in assay [14] it was 3.34 µM (inactive). Moreover, the GI50 in [15] is > 10 µM (inactive); in assay [16] it was 10.6 µM (inactive); in assay [17], 5.74 µM (inactive); in [18], 15.7 µM (inactive).
As for `CC1(C)N/C(=C\C=O)C(C)(C)N1O`, the GI50 is > 100 µM (inactive) in assay [1]; > 100 µM (inactive) in [19]; > 100 µM in assay [2]; > 100 µM (inactive) in [3]; > 100 µM (inactive) in [4]; > 100 µM (inactive) in assay [5]. Also, the GI50 in assay [20], in assay [6], in assay [7], in [8], in [9] and in assay [10] was > 100 µM (inactive) in each case. The GI50 in assay [11], in assay [12], in assay [14], in assay [15], in [16] and in [17] was > 100 µM (inactive) in each case. The GI50 in assay [18] was > 100 µM (inactive).
With `CCCCN(CCCC)c1ccc(/N=N/c2ccc(S(=O)(=O)O)cc2)cc1`, the GI50 in [1] is 12.8 µM (inactive); in assay [19], > 100 µM (inactive); in assay [2], 17.2 µM; in assay [3] it was > 100 µM (inactive); in assay [4], 20.2 µM (inactive); in [5] it was 20.4 µM (inactive). In addition, the GI50 in assay [20] was 46.7 µM (inactive); in [7] it was 24 µM (inactive); in assay [8], 30.1 µM (inactive); in assay [9] it was 19.8 µM (inactive); in assay [10] it was 24.4 µM (inactive); in assay [11], 17.7 µM (inactive). Moreover, the GI50 in assay [12] is 18.4 µM (inactive); in assay [14], 25.4 µM (inactive); in assay [15], 51.1 µM (inactive); in assay [16], 7 µM (inactive); in assay [17], 40.9 µM (inactive); in [18], 20.6 µM (inactive).
On to `O=C(NN1C(=O)CS(=O)(=O)C1c1ccc(C(F)(F)F)cc1)c1ccncc1` (stereo unspecified), for which the GI50 in assay [1] was > 100 µM (inactive); in assay [19] it was > 100 µM (inactive); in [2], > 100 µM; in assay [3], > 100 µM (inactive); in [4], > 100 µM (inactive); in assay [5], > 100 µM (inactive). The GI50 in assay [20], in assay [6], in [7], in [9], in assay [11] and in assay [12] was > 100 µM (inactive) each time. In addition, the GI50 in assay [13], in assay [14], in [15], in assay [16], in assay [17] and in assay [18] was > 100 µM (inactive) throughout.
With `CC1(C)CCc2ccc(OCCC(=O)O)cc2O1`, the GI50 was > 100 µM (inactive) in assay [1]; > 100 µM (inactive) in assay [19]; > 100 µM in [2]; > 100 µM (inactive) in assay [3]; > 100 µM (inactive) in [4]; > 100 µM (inactive) in [5]. The GI50 in [20], in assay [6], in [8], in assay [9], in assay [11] and in [12] was > 100 µM (inactive) throughout. The GI50 in [13], in assay [14], in [15], in assay [16], in assay [17] and in assay [18] was > 100 µM (inactive) in each case.
